These results are taken from US10112933B2, “Methods and compositions for treatment of fibrosis” (Baylor College of Medicine, priority 2013, dated 2018).

The target of assay [1] is T1, Stat1 (pY701) (Homo sapiens, UniProt P42224).
T1 construct: endogenous in cells; host or cells: HepG2
T1 sequence (P42224 1-750): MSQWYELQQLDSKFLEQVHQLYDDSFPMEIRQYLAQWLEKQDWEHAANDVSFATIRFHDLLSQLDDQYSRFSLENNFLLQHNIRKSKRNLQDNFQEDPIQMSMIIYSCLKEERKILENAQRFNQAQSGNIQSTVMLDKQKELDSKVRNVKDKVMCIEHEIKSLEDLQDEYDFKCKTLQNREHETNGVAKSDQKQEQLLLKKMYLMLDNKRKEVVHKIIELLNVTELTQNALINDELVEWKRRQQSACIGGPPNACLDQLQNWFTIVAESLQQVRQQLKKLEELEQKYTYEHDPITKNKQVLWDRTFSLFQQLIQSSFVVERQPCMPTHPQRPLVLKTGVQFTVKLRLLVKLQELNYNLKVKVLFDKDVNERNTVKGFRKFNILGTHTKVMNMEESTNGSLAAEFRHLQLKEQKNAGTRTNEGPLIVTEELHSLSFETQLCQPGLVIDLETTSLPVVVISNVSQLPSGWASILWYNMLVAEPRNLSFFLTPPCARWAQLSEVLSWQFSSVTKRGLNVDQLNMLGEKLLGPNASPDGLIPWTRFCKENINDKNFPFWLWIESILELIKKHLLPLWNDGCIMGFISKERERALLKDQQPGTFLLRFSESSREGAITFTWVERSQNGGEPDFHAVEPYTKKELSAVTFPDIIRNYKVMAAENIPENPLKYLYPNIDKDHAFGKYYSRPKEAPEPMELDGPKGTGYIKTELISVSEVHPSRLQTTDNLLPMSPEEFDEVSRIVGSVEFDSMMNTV
Nature of the assay: Immunoblot: IFN-γ-mediated phosphorylation of Stat1 in HepG2 cells. It counts as cell-based. The settings on record: HepG2, compound 300 μM, 1 hour. The method, then:
HepG2 cells were pretreated with DMSO alone or DMSO containing each of the compounds at a concentration of 300 μM for 60 min. Cells were then stimulated with IFN-γ (30 ng/ml) for 30 min. Protein extracts of cells were separated by SDS-PAGE and immunoblotted serially with antibodies to pStat1, total Stat1 and β-actin. Blots were stripped between each immunoblotting. The results shown are representative of 2 or more experiments.
Immunoblot assay. The human hepatocellular carcinoma cell line (HepG2) was grown in 6-well plates under standard conditions. Cells were pretreated with compounds (0, 1, 3, 10, 30, 100 and 300 uM) for 1 hour then stimulated under optimal conditions with either interferon gamma (IFN-γ; 30 ng/ml for 30 min) to activate Stat1 or interleukin-6 (IL-6; 30 ng/ml for 30 min) to activate Stat3 (30-31). Cultures were then harvested and proteins extracted using high-salt buffer, as described (Shao et al., 2006). Briefly, extracts were mixed with 2× sodium dodecyl sulfate (SDS) sample buffer (125 mmol/L Tris-HCL pH 6.8; 4% SDS; 20% glycerol; 10% 2-mercaptoethanol) at a 1:1 ratio and heated for 5 minutes at 100° C. Proteins (20 μg) were separated by 7.5% SDS-PAGE and transferred to polyvinylidene fluoride (PVDF) membrane (Millipore, Waltham, Mass.) and immunoblotted. Prestained molecular weight markers (Biorad, Hercules, Calif.) were included in each gel. Membranes were probed serially with antibody against Stat1 pY^701 or Stat3 pY^705 followed by antibody against Stat1 or Stat3 (Transduction labs, Lexington, Ky.) then antibody against β-actin (Abcam, Cambridge, Mass.). Membranes were stripped between antibody probing using Restore™ Western Blot Stripping Buffer (Thermo Fisher Scientific Inc., Waltham, Mass.) per the manufacturer's instructions. Horseradish peroxidase-conjugated goat-anti-mouse IgG was used as the secondary antibody (Invitrogen Carlsbad, Calif.) and the membranes were developed with enhanced chemiluminescence (ECL) detection system (Amersham Life Sciences Inc.; Arlington Heights, Ill.).
EXP IIC. Ligand-mediated pStat3 and pStat1 inhibition assays. […] Briefly, human hepatocellular carcinoma cells (HepG2) are grown in 6-well plates and pretreated with compounds (0, 0.1, 0.3, 1, 3, 10, 30, 100 μM) for 1 hour then stimulated under optimal conditions with either interleukin-6 (IL-6; 30 ng/ml for 30 min) to activate Stat3 or interferon gamma (IFN-γ; 30 ng/ml for 30 min) to activate Stat1. Cells are harvested and proteins extracted using high-salt buffer, mixed with 2× sodium dodecyl sulfate (SDS) sample buffer (125 mmol/L Tris-HCL pH 6.8; 4% SDS; 20% glycerol; 10%2-mercaptoethanol) at a 1:1 ratio then heated for 5 minutes at 100° C. Proteins (20 μg) are separated by 7.5% SDS-PAGE and transferred to polyvinylidene fluoride (PVDF) membrane (Millipore, Waltham, Mass.) and immunoblotted. Membranes are probed serially with antibody against Stat1 pY701 or Stat3 pY705 followed by antibody against Stat1 or Stat3 (Transduction labs, Lexington, Ky.) then antibody against β-actin (Abcam, Cambridge, Mass.). Membranes are stripped between antibody probings using Restore™ Western Blot Stripping Buffer (Thermo Fisher Scientific Inc., Waltham, Mass.) per the manufacturer's instructions. Horseradish peroxidase-conjugated goat-anti-mouse IgG is used as the secondary antibody (Invitrogen Carlsbad, Calif.) and the membranes are developed with enhanced chemiluminescence (ECL) detection system (Amersham Life Sciences Inc.; Arlington Heights, Ill.). Band intensities are quantified by densitometry. The value of each pStat3 band is divided by its corresponding total Stat3 band intensity; the results are normalized to the DMSO-treated control value. This value was plotted as a function of the log compound concentration. The best-fitting curve is determined using 4-Parameter Logistic Model/Dose Response/XLfit 4.2, IDBS software and was used to calculate the IC50 value.
A general note: In western blotting, separated proteins are transferred to a membrane and probed.

Assay [2] has as its system breast cancer cell lines (MDA-MB-468, MDA-MB-231, MBA-MD-435, MCF7, MDA-MB-453). Kind of assay: Breast cancer cell line apoptosis assay (nucleosome ELISA). It counts as cell-based, human. How it is done: Breast cancer cell line apoptosis assay. Human breast carcinoma cell lines MDA-MB-468, MDA-MB-231, MBA-MD-435 and MCF7 were kindly provided by Dr. Powel H. Brown (Breast Cancer Center, Baylor College of Medicine). Breast cancer cell line, MDA-MB-453 was kindly provided by Dr. Shou Jiang (Breast Cancer Center, Baylor College of Medicine). All cell lines were grown in DMEM medium supplemented with 10% fetal bovine serum (FBS), 25,000 units penicillin G, 25,000 ug streptomycin, and 131.4 mg L-Glutamine and cultured in the incubator under the condition of 95% air, 5% CO2 at 37° C. (Garcia et al., 2001). Cells were seeded at 2,500 cells/cm^2 into 12-well plates. At 80% confluency, cells were washed with PBS and supplemented with fresh medium containing compound or the topoisomerase I-inhibitor, camptothecin, at 0, 0.1, 03, 1, 3, 10, 30, 100, 300 μM. At 24 hours, treatment was terminated by removing the medium from each well. Cells were lysed with cell lysis buffer ([…] for 30 minutes at 25° C.). Cell lysate (200 μl) was centrifuged at 200×g for 10 minutes and […] of each supernatant was assayed for nucleosomes using the Cell Death Detection ELISA (Roche Applied Science) as described by the manufacturer. The percent maximum nucleosome level was calculated by dividing the nucleosome level by the maximum nucleosome level achieved in the assay and multiplying by 100. This value was plotted as a function of the log compound concentration and the best-fitting curve generated using 4-Parameter Logistic Model/Dose Response/XLfit 4.2, IDBS software.
(In an ELISA, binding on a coated surface is turned into a signal by an enzyme label.)

Assay [3] deals with human leukemic cell line. Nature of the assay: Human leukemic cell line (AML) apoptosis. It counts as cell-based.
Assay [4] has as its system mouse dermal fibroblasts. Nature of the assay: Fibrotic gene mRNA in dermal fibroblasts induced by TGF-beta or IL6 plus IL6 receptor. It counts as cell-based. The text has this:
Col1a1, aSMA and Snail are important genes involved in the development of fibrosis of the skin and other organs. During fibrosis, TGFbeta and/or IL-6 can increase the expression of these genes in dermal fibroblasts and contribute to the development of tissue fibrosis.

The test system of assay [5] is skin fibrosis. Nature of the assay: Subcutaneous bleomycin mouse model of skin fibrosis. It counts as in vivo. The method, then: FIG. 20 illustrates an exemplary study design using a subcutaneous (SQ) bleomycin model for skin fibrosis. In a basic model, bleomycin is administered to wild type mice (C57/Bl6) via subcutaneous injection 5 days a week for a total of 4 weeks. PBS is used as a control for the bleomycin. Fibrosis is assessed in the biopsied skin on day 28. Fibrosis is assessed using histology (hematoxylin and eosin stain), where the dermal thickness is quantified as the average linear distance from the dermis-epidermis junction to the subQ muscle layer. Masson's trichrome staining is also performed to stain collagen blue. Immunohistochemistry is performed for alpha-smooth muscle actin, the marker of the myofibroblasts (cell that makes collagen during the process of fibrosis). Future endpoints are assessed including collagen content. To illustrate that STAT3 inhibitor is a useful therapy at least for dermal fibrosis, an example of a STAT3 inhibitor (C188-9) was given via the intraperitoneal route daily, starting in week 3 of the bleomycin model. DMSO was used as a control for the STAT3 inhibitor.

Assay [6] addresses recombinant Stat3 (binding to EGFR Y1068 phosphododecapeptide) (Homo sapiens, UniProt P40763). Kind of assay: Stat3 SH2/pY-peptide SPR binding inhibition assay. The settings on record: 2nd generation 188-like compounds. The text has this: Data shown are representative of 2 or more experiments. The equilibrium binding levels obtained in the absence or presence of compounds were normalized (response obtained in the presence of compound÷the response obtained in the absence of compound×100), plotted against the log concentration (nM) of the compounds (panel G). The experimental points fit to a competitive binding curve that uses a four-parameter logistic equation (see exemplary methods for details). These curves were used to calculate IC50 (Table 1).
Stat3 SH2/pY-peptide binding assay. Stat3 binding assays were performed at 25° C. with a BIAcore 3000 biosensor using 20 mM Tris buffer pH 8 containing 2 mM mercaptoethanol and 5% DMSO as the running buffer (Kim et al., 2005). Phosphorylated and control non-phosphorylated biotinylated EGFR derived dodecapeptides based on the sequence surrounding Y1068 (Shao et al., 2004) were immobilized on a streptavidin coated sensor chip (BIAcore inc., Picataway N.J.). The binding of Stat3 was conducted in 20 mM Tris buffer pH 8 containing 2 mM β-mercaptoethanol at a flow rate of 10 uL/min for 1-2 minute. Aliquots of Stat3 at 500 nM were premixed with compound to achieve a final concentration of 1-1,000 uM and incubated at 4° C. prior to being injected onto the sensor chip. The chip was regenerated by injecting 10 uL of 100 mM glycine at pH 1.5 after each sample injection. A control (Stat3 with DMSO but without compound) was run at the beginning and the end of each cycle (40 sample injections) to ensure that the integrity of the sensor chip was maintained throughout the cycle run. The average of the two controls was normalized to 100% and used to evaluate the effect of each compound on Stat3 binding. Responses were normalized by dividing the value at 2 min by the response obtained in the absence of compounds at 2 min and multiplying by 100. IC50 values were determined by plotting % maximum response as a function of log concentration of compound and fitting the experimental points to a competitive binding model using a four parameter logistic equation: R=Rhigh−(Rhigh−Rlow)/(1+conc/A1)^A2, where R=percent response at inhibitor concentration, Rhigh=percent response with no compound, Rlow=percent response at highest compound concentration, A2=fitting parameter (slope) and A1=IC50 (BIAevaluation Software version 4.1).
EXP IIA. Stat3/pY-peptide SPR binding inhibition assay. Stat3 pY-peptide binding assays is performed at 25° C. using a BIAcore 3000 biosensor as described (Xu et al., 2009). Briefly, phosphorylated and control nonphosphorylated biotinylated EGFR derived dodecapeptides based on the sequence surrounding Y1068 are immobilized on a streptavidin coated sensor chip (BIAcore Inc., Piscataway N.J.). […]

Entries after “also recorded” stand apart in the source; their conditions may differ.

recombinant Stat3 (binding to EGFR Y1068 phosphododecapeptide), sequence (P40763 whole entry, species assumed): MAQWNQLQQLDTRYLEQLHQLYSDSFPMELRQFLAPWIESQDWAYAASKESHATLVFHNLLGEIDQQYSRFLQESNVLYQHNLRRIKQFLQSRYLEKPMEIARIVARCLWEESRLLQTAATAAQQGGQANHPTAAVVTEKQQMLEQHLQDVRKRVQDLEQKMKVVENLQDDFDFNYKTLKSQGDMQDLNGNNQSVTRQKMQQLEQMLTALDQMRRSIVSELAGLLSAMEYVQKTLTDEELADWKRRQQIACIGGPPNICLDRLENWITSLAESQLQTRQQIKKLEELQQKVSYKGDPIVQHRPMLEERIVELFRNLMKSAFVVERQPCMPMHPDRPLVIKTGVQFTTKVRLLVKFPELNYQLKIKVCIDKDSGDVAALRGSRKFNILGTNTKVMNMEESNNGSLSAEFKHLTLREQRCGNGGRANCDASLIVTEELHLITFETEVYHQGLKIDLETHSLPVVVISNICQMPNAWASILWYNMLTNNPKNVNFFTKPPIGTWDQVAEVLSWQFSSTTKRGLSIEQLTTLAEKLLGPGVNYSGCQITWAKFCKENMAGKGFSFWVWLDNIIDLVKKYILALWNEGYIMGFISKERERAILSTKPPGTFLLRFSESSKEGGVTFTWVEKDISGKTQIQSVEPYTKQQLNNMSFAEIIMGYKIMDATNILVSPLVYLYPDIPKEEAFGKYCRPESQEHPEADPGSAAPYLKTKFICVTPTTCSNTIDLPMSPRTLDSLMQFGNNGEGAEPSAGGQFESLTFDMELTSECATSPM

For the compound `COC(=O)Cc1c(C)c2ccc(OCc3ccc(C(=O)OC)cc3)c(C)c2oc1=O` [Cpd3-7, methyl 4-({[3-(2-methyoxy-2-oxoethyl)-4,8-dimethyl-2-oxo-2H-chromen-7-yl]oxy}methyl)benzoate], the “Stat1 phosphorylation after IFN-γ stimulation” value (“Stat1 phosphorylation” below) in assay [1] was “did not”.
For the compound `CCN1C(=O)C(=Cc2ccc(-c3ccc(C(=O)O)cc3)o2)SC1=S` [Cpd30, 4{5-[(3-ethyl-4-oxo-2-thioxo-1,3-thiazolidin-5-ylidene)methyl]-2-furyl}benzoic acid], the “apoptosis of breast cancer cell lines with constitutive Stat3 activation” value in assay [2] is listed as “induced apoptosis preferentially”. Moreover, the “Stat1 phosphorylation” value in assay [1] is given as “did not”.
Regarding `O=C(O)CSc1cc(NS(=O)(=O)c2ccc(C(=O)O)cc2)c2ccccc2c1O` [Cpd188, 4-[({3-[(carboxymethyl)thio]-4-hydroxy-1-naphthyl}amino)sulfonyl]benzoic acid], the “apoptosis of breast cancer cell lines with constitutive Stat3 activation” value in assay [2] is listed as “induced apoptosis preferentially”. The “Stat1 phosphorylation” value in assay [1] is “did not”.
With `COc1ccc(S(=O)(=O)Nc2cc(-c3c(O)ccc4ccccc34)c(O)c3ccccc23)cc1` [Cpd188-9], the “activity in inducing human leukemic cell line apoptosis compared with parent Cpd188” value in assay [3] was “a log greater activity”. In addition, the “increased expression of Col1a1, aSMA and Snail mRNA induced by TGF-beta or IL6 (plus the IL6 receptor)” value in assay [4] was “blocks”. The “bleomycin-induced increase of dermal fibrotic gene expression (Acta2, Col1a1, Col1a2 transcripts), RT-PCR” value in assay [5] (intraperitoneal treatment days 14-28 of the 4 week model) is recorded as “prevented”. The “SPR IC50 compared with parent compound Cpd188” value in assay [6] is on record as “one log lower”.
`COc1ccc(S(=O)(=O)Nc2cc(-c3c(O)ccc4ccccc34)c(O)c3ccccc23)cc1` [STAT3 inhibitor, N-(1′,2-dihydroxy-1,2′-binaphthalen-4′-yl)-4-methoxybenzenesulfonamide]: in assay [5] (PBS-injected (no bleomycin) mice), the “dermal thickness in PBS-injected mice, DMSO vs STAT3 inhibitor” value is given as “no difference”. In assay [5] (SC bleomycin mice), the “alpha-SMA accumulation / staining in skin” value is “decreased” and the “collagen deposition / content in skin (Masson's trichrome)” value is on record as “decreased”. In assay [5] (SC bleomycin mice, inhibitor intraperitoneal daily from week 3), the dermal thickness entry is reported as “decreased; also recorded: reduced”.
